Data reported in patent publication US20120122727A1, “IN VITRO METHOD FOR PREDICTING WHETHER A COMPOUND IS GENOTOXIC IN VIVO” (priority 2009, published 2012).

Columns and labels:
[1] = system: primary mouse hepatocytes; experiment: Gene expression (Affymetrix Mouse Genome 430 2.0) in primary mouse hepatocytes, true vs false GTX, 24 h and 48 h
[2] = system: primary mouse hepatocytes

## Cl.ClCc1ccccn1 [2-CP, 2-(Chloromethyl)pyridine.HCl]
[1]
  Gene expression NM_012006 average: −0.1277
  Gene expression NM_013642 average: 0.3967
  Gene expression NM_013738 average: −0.373
  Gene expression NM_013929 average: −0.5291
  Gene expression NM_018881 average: −0.0599
  Gene expression NM_019738 average: −0.5143
  Gene expression NM_030697 average: −0.0882
  Gene expression NM_053122 average: 0.1396
  Gene expression NM_134147 average: 0.6449
  Gene expression NM_134188 average: −0.1373
  Gene expression X62701 average: −0.146
  Gene expression data AF000969 (Cadps2): −0.1003
  Gene expression data AF022072 (Grb10): 0.621
  Gene expression data AF065917 (Lif): 0.01213
  Gene expression data AF297615 (Ggta1): 0.06963
  Gene expression data AI594683 (Dmn): −0.3157
  Gene expression data AI596632 (Ptprg /// LOC632664): 0.2251
  Gene expression data AI987929 (Ndrg1): −0.1004
  Gene expression data AK004419 (Fbxl17): −0.1203
  Gene expression data AK005731 (1700007K13Rik): 0.1965
  Gene expression data AK007766 (1810044A24Rik): −0.1235
  Gene expression data AK007854 (1810053B23Rik): −0.4492
  Gene expression data AK009736 (Gpr137b /// LOC664862 /// LOC673335): 0.9644
  Gene expression data AK010447 (Smyd3): 0.06097
  Gene expression data AK014608 (4632434l11Rik): 0.5726
  Gene expression data AK019979 (2610528E23Rik): 0.3731
  Gene expression data AV095209 (Mthfd1l): 0.5754
  Gene expression data AV141095 (1110033M05Rik): 0.1817
  Gene expression data AV173571 (1700106N22Rik): −0.01367
  Gene expression data AV219418 (Ldhb): −0.7968
  Gene expression data AV223474 (Zdhhc14): −0.4094
  Gene expression data AV298304 (Homez): 0.1881
  Gene expression data AV327248 (Zfp365 /// LOC674611): 0.1477
  Gene expression data AV377066 (9130221J18Rik): −0.6354
  Gene expression data AW240761 (Tbc1d5): 0.02803
  Gene expression data AW543460 (Pard3): 0.2263
  Gene expression data AW543723: 0.1487
  Gene expression data AW986246 (Maoa): 1.21
  Gene expression data BB027848 (4732466D17Rik): −0.5716
  Gene expression data BB043558 (9230114K14Rik): 0.4946
  Gene expression data BB275142 (AW456874): −0.1954
  Gene expression data BB308836 (Ppm1l): −0.3692
  Gene expression data BB318221 (Zdhhc14): −0.2464
  Gene expression data BB463610 (4632434l11Rik): 0.3848
  Gene expression data BB526605 (Mipol1): −0.2134
  Gene expression data BB770528 (Rai2): −0.3271
  Gene expression data BB821363 (Scfd2): −0.1883
  Gene expression data BC004827 (Psat1): 0.3654
  Gene expression data BC008626 (Icam1): −0.242
  Gene expression data BC010462 (BC010462): −0.5895
  Gene expression data BC012247 (Dcxr): −0.3261
  Gene expression data BC012260 (Psmf1): −0.824
  Gene expression data BC015270 (Hist2h3c2): −0.231
  Gene expression data BC016073 (Cdkal1): 0.03017
  Gene expression data BC016265 (Ube2e2): 0.0177
  Gene expression data BC019882 (Acaa1b): −0.0399
  Gene expression data BC025501 (Aaas): 0.0663
  Gene expression data BC025837 (Sbk1): −0.5042
  Gene expression data BC025915 (Cova1): 0.05827
  Gene expression data BC026422 (Tgm1): −0.3825
  Gene expression data BF719766 (Thyn1): 0.0395
  Gene expression data BG065754 (Ccng1): 0.3287
  Gene expression data BG066903 (Kif16b): 0.3368
  Gene expression data BG069873 (Gnb1l): −0.1027
  Gene expression data BG070887 (Gtdc1): −0.06773
  Gene expression data BG076151 (Ppm1d): 0.1213
  Gene expression data BG261907 (Large): −0.1177
  Gene expression data BI651416 (Cdc42bpg): 0.05237
  Gene expression data BI660702 (Ell3): 0.08167
  Gene expression data BM198879 (Ercc5): 0.2935
  Gene expression data BM230508 (A030007D23Rik): 0.3615
  Gene expression data NM_007987 (Fas): 0.2313
  Gene expression data NM_008522 (Ltf): −0.3581
  Gene expression data NM_008576 (Abcc1): 1.199
  Gene expression data NM_011176 (St14): −0.05393
  Gene expression data NM_011316 (Saa4): −0.04463
  Gene expression data NM_012006 (Acot1): 0.6012
  Gene expression data NM_013866 (Zfp385): −0.1346
  Gene expression data NM_018770 (Igsf4a): 0.14
  Gene expression data NM_021451 (Pmaip1): 0.02357
  Gene expression data NM_025770 (Atg10): 0.3445
  Gene expression data NM_028803 (Gbe1): 0.5242
  Gene expression data NM_030697 (Ankrd47): −0.5785
  Gene expression data NM_053168 (Trim11): −0.06783
  Gene expression data NM_134188 (Acot2): 0.501
  Gene expression data Y15910 (Diap2): 0.06693
[2]
  Gene expression data AF204959 (Cyp3a25 /// LOC622249): −0.5019
